According to article PMC10040441 (Nature biomedical engineering, 2023):

Tests used:
[1] = biological target: amyloid-β (Aβ42) aggregates (Homo sapiens, UniProt P05067); experiment: fluorescence intensity binding assay with synthetic Aβ[…] aggregates
[2] = biological target: amyloid-β (Aβ40) aggregates (Homo sapiens, UniProt P05067); experiment: as above
amyloid-β (Aβ40) aggregates, sequence (P05067 672-711): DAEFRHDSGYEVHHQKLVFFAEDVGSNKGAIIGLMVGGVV

amyloid-β (Aβ42) aggregates, sequence (P05067 672-713): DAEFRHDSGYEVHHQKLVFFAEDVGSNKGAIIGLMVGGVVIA

**Q.** How did the Kd [1] turn out when `CC1(C)C(/C=C/C2=C(c3ccc(CCC(=O)O)cc3)C(=C/C=C3/N(CCC[N+](C)(C)C)c4ccc(S(=O)(=O)O)cc4C3(C)C)/CCC2)=[N+](CCC[N+](C)(C)C)c2ccc(S(=O)(=O)O)cc21` [ZW800–1C] was run?
**A.** 0.0789 ± 0.0123 µM

**Q.** What about the Kd [2] of the same compound?
**A.** 0.0437 ± 0.0058 µM
